In brackets after ≈: the same amount, converted by molar mass.
Each compound was assayed on Anopheles minimus (assay: Larvicidal activity in Anopheles minimus HO by WHO method).
Assay type: functional

**Q.** With `COC1=C(C)C(=O)O/C1=C1\O[C@]23CCCN4[C@H]([C@@H]5C[C@H](C)C(=O)O5)[C@H](C[C@H]4[C@H]2[C@@H]1C)O3` [OXYPROTOSTEMONINE] as the compound, how does the LC50 read?
**A.** 4 µg/mL (≈ 9.27 µM)

**Q.** For `COC1=C(C)C(=O)O/C1=C1\O[C@@]23CCCN4CCC[C@H](O2)[C@H]4[C@H]3[C@@H]1C` [STEMOCURTISINE], which LC50 is on record?
**A.** 18 µg/mL (≈ 51.8 µM)

**Q.** Which LC50 does the source give for `CC[C@H](O)[C@@H]1CC[C@@H]2O[C@@]34CCCN1[C@@H]2[C@H]3[C@H](C)/C(=C1/OC(=O)C(C)=C1OC)O4` [STEMOCURTISINOL] here?
**A.** 39 µg/mL (≈ 96.2 µM)
